Source: ChEMBL document CHEMBL1131824, “3-Alkyl-(5,5'-diphenyl)imidazolidineiones as new cannabinoid receptor ligands” (Bioorg Med Chem Lett, 1999)
The source made the active and inactive calls. The calls are words filed in the database; no cut-off is given here.

Assays:
Cannabinoid receptor 1 [1] = biological target: T1, Cannabinoid receptor 1 (Homo sapiens, UniProt P21554); assay: Displacement of [3H]-SR- 141716A binding to human CB1 receptor expressed in CHO cell membranes at the concentration of 10 uM
T1 sequence (P21554 whole entry): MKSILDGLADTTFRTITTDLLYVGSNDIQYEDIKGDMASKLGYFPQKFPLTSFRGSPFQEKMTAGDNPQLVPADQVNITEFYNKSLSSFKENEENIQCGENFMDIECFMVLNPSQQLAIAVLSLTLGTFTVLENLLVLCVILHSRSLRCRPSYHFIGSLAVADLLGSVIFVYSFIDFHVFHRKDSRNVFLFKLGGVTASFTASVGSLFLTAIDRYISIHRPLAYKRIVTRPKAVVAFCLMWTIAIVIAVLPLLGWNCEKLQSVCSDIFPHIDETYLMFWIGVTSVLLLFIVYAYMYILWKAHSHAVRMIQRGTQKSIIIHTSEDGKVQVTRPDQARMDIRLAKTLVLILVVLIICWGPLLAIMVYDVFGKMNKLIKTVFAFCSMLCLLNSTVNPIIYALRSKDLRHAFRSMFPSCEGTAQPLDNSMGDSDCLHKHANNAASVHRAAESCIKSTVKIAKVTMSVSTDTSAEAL

Cannabinoid receptor 1 [2] = biological target: T1, Cannabinoid receptor 1; assay: biochemical; type: cell-based, CHO
Cannabinoid receptor 1 [3] = biological target: T1, Cannabinoid receptor 1; assay: Displacement of [3H]-SR- 141716A binding to human CB1 receptor expressed in CHO cell membranes at the concentration of 1 uM
Cannabinoid receptor 1 [4] = biological target: T1, Cannabinoid receptor 1; assay: Displacement of [3H]-SR- 141716A binding to human CB1 receptor expressed in CHO cell membranes at the concentration of 10 uM; Not significant
Cannabinoid receptor 1 [5] = biological target: T1, Cannabinoid receptor 1; assay: Ability to displace [3H]-SR- 141716A binding to CB1 receptor expressed in CHO cell membrane; type: cell membranes
Cannabinoid receptor 1 [6] = biological target: T1, Cannabinoid receptor 1; assay: Binding affinity for brain CBI receptor was determined

| SMILES | Displacement (Cannabinoid receptor 1 [1]) [%] | other results |
| --- | --- | --- |
| O=C1NC(c2ccccc2)(c2ccccc2)C(=O)N1CCN1CCCCC1 | < 15 | – |
| CCCCCCN1C(=O)NC(c2ccccc2)(c2ccccc2)C1=O | 35.6 | – |
| COc1ccc(C2(c3ccc(OC)cc3)NC(=O)N(CCN3CCOCC3)C2=O)cc1 | 21.7 | – |
| O=C1NC(c2ccccc2)(c2ccccc2)C(=O)N1CCN1CCOCC1 | < 5 | – |
| CCCCCCC(C)(C)c1cc(O)c2c(c1)OC(C)(C)[C@@H]1CCC(CO)C[C@@H]21 (stereo partly specified) | – | Ki (Cannabinoid receptor 1 [2]): 0.00082 µM |
| CCCCCCN1C(=O)NC(c2ccc(OC)cc2)(c2ccc(OC)cc2)C1=O | 66.6 | Displacement (Cannabinoid receptor 1 [3]): 23% |
| COc1ccc(C2(c3ccc(OC)cc3)NC(=O)NC2=O)cc1 | – | Displacement (Cannabinoid receptor 1 [4]): inactive |
| O=C1NC(=O)C(c2ccccc2)(c2ccccc2)N1 | – | Displacement (Cannabinoid receptor 1 [4]): inactive |
| CCCCCCCCN1C(=O)NC(c2ccc(F)cc2)(c2ccc(F)cc2)C1=O | 62.5 | Displacement (Cannabinoid receptor 1 [3]): 15.3% |
| CCCN1C(=O)NC(c2ccccc2)(c2ccccc2)C1=O | < 20 | – |
| O=C1NC(=O)C(c2ccc(F)cc2)(c2ccc(F)cc2)N1 | – | Displacement (Cannabinoid receptor 1 [4]): inactive |
| CCCCCN1C(=O)NC(c2ccccc2)(c2ccccc2)C1=O | 35.4 | – |
| O=C1NC(c2ccccc2)(c2ccccc2)C(=O)N1Cc1ccccc1 | 40.6 | – |
| CCCCCCCN1C(=O)NC(c2ccc(C)cc2)(c2ccc(C)cc2)C1=O | 51.3 | – |
| O=C1NC(=O)C(c2ccc(Br)cc2)(c2ccc(Br)cc2)N1 | – | Displacement (Cannabinoid receptor 1 [4]): inactive |
| O=C1NC(c2ccccc2)(c2ccccc2)C(=O)N1C1CC1 | < 5 | – |

| SMILES | Displacement (Cannabinoid receptor 1 [1]) [%] | other results |
| --- | --- | --- |
| CCCCCCCN1C(=O)NC(c2ccc(Br)cc2)(c2ccc(Br)cc2)C1=O | 89.2 | Ki (Cannabinoid receptor 1 [5]): 0.0979 µM; Displacement (Cannabinoid receptor 1 [3]): 51.5% |
| CCCCCCN1C(=O)NC(c2ccc(Br)cc2)(c2ccc(Br)cc2)C1=O | 72.1 | Displacement (Cannabinoid receptor 1 [3]): 30.2% |
| O=C1NC(c2ccc(Br)cc2)(c2ccc(Br)cc2)C(=O)N1CCN1CCOCC1 | 91.2 | Ki (Cannabinoid receptor 1 [5]): 0.0703 µM; Displacement (Cannabinoid receptor 1 [3]): 54.1% |
| O=C1NC(c2ccc(F)cc2)(c2ccc(F)cc2)C(=O)N1CCN1CCOCC1 | 30.3 | – |
| CN(C)CCN1C(=O)NC(c2ccccc2)(c2ccccc2)C1=O | < 5 | – |
| O=C1NC(c2ccc(Br)cc2)(c2ccc(Br)cc2)C(=O)N1CCCO | 88.4 | Ki (Cannabinoid receptor 1 [5]): 0.103 µM; Displacement (Cannabinoid receptor 1 [3]): 50.2% |
| Cc1ccc(C2(c3ccc(C)cc3)NC(=O)NC2=O)cc1 | – | Displacement (Cannabinoid receptor 1 [4]): inactive |
| CCCCCn1ccc(C(=O)c2cccc3ccccc23)c1 | – | Ki (Cannabinoid receptor 1 [6]): 0.087 µM |
| CCCCN1C(=O)NC(c2ccccc2)(c2ccccc2)C1=O | 25.1 | – |
| CCCCCCCCN1C(=O)NC(c2ccccc2)(c2ccccc2)C1=O | 61.2 | – |
| CCCCCCCN1C(=O)NC(c2ccc(F)cc2)(c2ccc(F)cc2)C1=O | 51.4 | – |
| Cc1ccc(C2(c3ccc(C)cc3)NC(=O)N(CCN3CCOCC3)C2=O)cc1 | 23.9 | – |
| CCCCCCCCN1C(=O)NC(c2ccc(Br)cc2)(c2ccc(Br)cc2)C1=O | 80 | Displacement (Cannabinoid receptor 1 [3]): 48.2% |
| CCCCCCN1C(=O)NC(c2ccc(C)cc2)(c2ccc(C)cc2)C1=O | 46.8 | – |
| CCCCCCN1C(=O)NC(c2ccc(F)cc2)(c2ccc(F)cc2)C1=O | 40.6 | – |
